Assay results as given in patent US20250154115A1, “ARYLBENZOISOXAZOLE COMPOUNDS AS IP6K AND IPMK INHIBITORS AND METHODS OF USE THEREOF” (THE UNIVERSITY OF NORTH CAROLINA AT CHAPEL HILL, priority 2022, published 2025).

Assays:
Assay type in all cases: biochemical
IP6K3 = IP6K3 (Homo sapiens (Human), UniProt Q96PC2); assay: Enzyme-coupled assay of IP6K3 activity (Dipp1-coupled, malachite green Pi release)
IP6K1 = IP6K1 (Homo sapiens (Human), UniProt Q92551); assay: Enzyme-coupled assay of IP6K1 activity (Dipp1-coupled, malachite green Pi release)
Description: (§1) […] The cells were disrupted using a constant cell disruption system (Constant Systems) under 20 kPsi.
(§2) Pi release was determined with a malachite green colorimetric assay.^45 Where indicated, TNP (Cayman Chemical) was added to the assays (FIG. 2A-E).

IP6K2 = IP6K2 (Homo sapiens (Human), UniProt Q9UHH9); assay: Enzyme-coupled assay of IP6K2 activity (Dipp1-coupled, malachite green Pi release)
Description: as §1, §2

IPMK = IPMK (Homo sapiens (Human), UniProt Q8NFU5); assay: Enzyme-coupled assay, IPMK IC50
[1] = determined from enzyme-coupled assays

Chain of IP6K1 (Q92551 whole entry): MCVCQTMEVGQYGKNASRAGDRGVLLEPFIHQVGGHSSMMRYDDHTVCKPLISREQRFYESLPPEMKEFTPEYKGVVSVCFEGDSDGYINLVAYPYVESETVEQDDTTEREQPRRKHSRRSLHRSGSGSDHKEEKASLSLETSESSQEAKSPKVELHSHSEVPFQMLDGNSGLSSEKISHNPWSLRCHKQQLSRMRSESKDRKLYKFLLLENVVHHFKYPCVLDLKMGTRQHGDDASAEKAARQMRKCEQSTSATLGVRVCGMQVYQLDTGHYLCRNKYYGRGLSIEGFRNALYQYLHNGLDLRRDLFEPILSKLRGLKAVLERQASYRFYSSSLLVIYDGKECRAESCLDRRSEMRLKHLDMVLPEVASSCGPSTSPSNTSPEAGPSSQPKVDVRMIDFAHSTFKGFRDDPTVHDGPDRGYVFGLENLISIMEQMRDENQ
Chain of IP6K2 (Q9UHH9 whole entry): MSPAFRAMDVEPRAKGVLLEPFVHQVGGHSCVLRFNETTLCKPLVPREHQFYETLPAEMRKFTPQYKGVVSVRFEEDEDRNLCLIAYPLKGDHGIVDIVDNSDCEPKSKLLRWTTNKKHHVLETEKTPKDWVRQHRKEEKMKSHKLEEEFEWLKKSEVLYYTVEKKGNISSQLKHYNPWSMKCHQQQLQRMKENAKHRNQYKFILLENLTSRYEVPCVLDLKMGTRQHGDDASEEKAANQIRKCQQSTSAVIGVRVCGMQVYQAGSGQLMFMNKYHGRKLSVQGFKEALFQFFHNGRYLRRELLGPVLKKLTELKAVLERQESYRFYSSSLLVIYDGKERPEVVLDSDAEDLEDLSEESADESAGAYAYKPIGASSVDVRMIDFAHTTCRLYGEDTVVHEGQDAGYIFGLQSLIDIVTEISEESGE
Chain of IP6K3 (Q96PC2 whole entry): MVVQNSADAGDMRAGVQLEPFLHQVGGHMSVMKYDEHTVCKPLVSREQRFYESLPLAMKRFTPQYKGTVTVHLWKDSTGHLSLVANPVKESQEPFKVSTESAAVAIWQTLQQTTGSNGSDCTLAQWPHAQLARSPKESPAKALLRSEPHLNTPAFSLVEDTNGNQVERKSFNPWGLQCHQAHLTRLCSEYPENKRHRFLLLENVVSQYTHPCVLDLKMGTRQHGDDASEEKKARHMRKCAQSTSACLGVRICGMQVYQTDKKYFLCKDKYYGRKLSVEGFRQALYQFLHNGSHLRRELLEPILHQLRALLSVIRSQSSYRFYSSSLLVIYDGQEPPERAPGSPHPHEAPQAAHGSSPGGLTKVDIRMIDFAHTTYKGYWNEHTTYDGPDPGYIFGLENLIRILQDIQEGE
Chain of IPMK (Q8NFU5 whole entry, species assumed): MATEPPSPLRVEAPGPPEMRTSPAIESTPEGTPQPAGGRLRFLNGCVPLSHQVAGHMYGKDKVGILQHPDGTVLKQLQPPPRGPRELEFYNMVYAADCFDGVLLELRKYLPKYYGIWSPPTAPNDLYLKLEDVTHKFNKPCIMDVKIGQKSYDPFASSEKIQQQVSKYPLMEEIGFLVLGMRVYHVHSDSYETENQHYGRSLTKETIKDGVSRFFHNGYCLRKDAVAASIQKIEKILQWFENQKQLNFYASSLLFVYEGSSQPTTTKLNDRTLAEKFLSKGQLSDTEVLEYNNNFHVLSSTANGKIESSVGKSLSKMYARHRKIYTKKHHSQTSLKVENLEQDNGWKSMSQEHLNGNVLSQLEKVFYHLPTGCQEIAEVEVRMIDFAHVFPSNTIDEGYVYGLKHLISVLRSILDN

Structure (SMILES) | IC50 (IP6K3; enzyme-coupled assay, Table 2) [nM] | IC50 (IPMK; enzyme-coupled assay, Table 2) [nM] | IC50 (IP6K2; enzyme-coupled assay, Table 2) [nM] | also measured
O=C(O)c1ccc2onc(-c3ccccc3)c2c1 [Cmpd 91] |  |  |  | IC50 (IP6K3; enzyme-coupled assay, Table 6): 100 to 1000 nM; IC50 (IP6K1; enzyme-coupled assay, Table 6): 1000 to 100000 nM; IC50 (IP6K2; enzyme-coupled assay, Table 6): 1000 to 100000 nM
O=c1[nH]c(-c2ccc3noc(-c4ccccc4)c3c2)no1 [Cmpd 124] |  |  |  | IC50 (IP6K3; [1]): 100 to 1000 nM; IC50 (IPMK; [1]): 10 to 100 nM; IC50 (IP6K1; [1]): 100 to 1000 nM; IC50 (IP6K2; [1]): 100 to 1000 nM
O=c1[nH]c(-c2ccc3noc(-c4ccc(-c5ccccc5)cc4)c3c2)no1 [Cmpd 125] |  |  |  | IC50 (IP6K3; [1]): < 10 nM; IC50 (IPMK; [1]): < 10 nM; IC50 (IP6K1; [1]): 10 to 100 nM; IC50 (IP6K2; [1]): 10 to 100 nM
O=C(Nc1ccc(-c2onc3ccc(-c4noc(=O)[nH]4)cc23)cc1)C1CC1 [Cmpd 126] |  |  |  | IC50 (IP6K3; [1]): 10 to 100 nM; IC50 (IPMK; [1]): 10 to 100 nM; IC50 (IP6K1; [1]): 100 to 1000 nM; IC50 (IP6K2; [1]): 100 to 1000 nM
CN(C)C(=O)/C=C/c1ccc2noc(-c3ccccc3)c2c1 [Compound 9] |  |  |  | IP6K3 IC50 (IP6K3; enzyme-coupled assay, Table 1): −
O=C(O)/C=C/c1ccc2noc(-c3ccccc3)c2c1 [Compound 10] |  |  |  | IC50 (IP6K3; enzyme-coupled assay, Table 1): 1000 to 100000 nM; IC50 (IP6K1; enzyme-coupled assay, Table 1): 100 to 1000 nM
Cc1cc(C)cc(-c2onc3ccc(/C=C/C(=O)O)cc23)c1 [Compound 11] |  |  |  | IC50 (IP6K3; enzyme-coupled assay, Table 1): 100 to 1000 nM; IC50 (IP6K1; enzyme-coupled assay, Table 1): 100 to 1000 nM; IC50 (IP6K2; enzyme-coupled assay, Table 1): 100 to 1000 nM
O=C(O)/C=C/c1ccc2noc(-c3ccc(OC(F)(F)F)cc3)c2c1 [Compound 14] |  |  |  | IC50 (IP6K3; enzyme-coupled assay, Table 1): 1000 to 100000 nM
O=C(O)/C=C/c1ccc2noc(-c3ccc(Oc4ccccc4)cc3)c2c1 [Compound 15] |  |  |  | IC50 (IP6K3; enzyme-coupled assay, Table 1): 100 to 1000 nM
O=C(O)/C=C/c1ccc2noc(-c3ccc(-c4ccccc4)cc3)c2c1 [Compound 16] |  |  |  | IC50 (IP6K3; enzyme-coupled assay, Table 1): 100 to 1000 nM
Cc1cc(C)cc(-c2onc3ccc([C@@H]4C[C@H]4C(=O)O)cc23)c1 [Compound 17] |  |  |  | IC50 (IP6K3; enzyme-coupled assay, Table 1): 1000 to 100000 nM; IC50 (IP6K1; enzyme-coupled assay, Table 1): 10 to 100 nM; IC50 (IP6K2; enzyme-coupled assay, Table 1): 10 to 100 nM
Cc1cc(C)cc(-c2onc3ccc(C(=O)O)cc23)c1 [Compound 19] | 1000 to 100000 | 100 to 1000 |  | 
O=C(O)c1ccc2noc(-c3ccc(Oc4ncc(Cl)cc4Cl)cc3)c2c1 [Compound 28] | 1000 to 100000 | 1000 to 100000 |  | IC50 (IP6K1; enzyme-coupled assay, Table 2): 100 to 1000 nM
O=C(O)c1ccc2noc(-c3cccc(Oc4ncc(Cl)cc4Cl)c3)c2c1 [Compound 30] | 1000 to 100000 | 10 to 100 |  | 
CNC(=O)c1ccc2noc(-c3cccc(Oc4ncc(Cl)cc4Cl)c3)c2c1 [Compound 31] |  | 1000 to 100000 | 100 to 1000 | IC50 (IP6K1; enzyme-coupled assay, Table 2): 100 to 1000 nM
O=C(O)c1ccc2noc(-c3ccc(NC(=O)C4CC4)cc3)c2c1 [Compound 35] | 100 to 1000 | 1000 to 100000 | 1000 to 100000 | IC50 (IP6K1; enzyme-coupled assay, Table 2): 1000 to 100000 nM
CC(C)C(=O)Nc1ccc(-c2onc3ccc(C(=O)O)cc23)cc1 [Compound 36] | 100 to 1000 | 1000 to 100000 | 100 to 1000 | 
O=C(CC1CCOCC1)Nc1ccc(-c2onc3ccc(C(=O)O)cc23)cc1 [Compound 37] | 1000 to 100000 | 1000 to 100000 | 1000 to 100000 | IC50 (IP6K1; enzyme-coupled assay, Table 2): 1000 to 100000 nM
CC(C)NC(=O)c1ccc(-c2onc3ccc(C(=O)O)cc23)cc1 [Compound 38] | 100 to 1000 | 1000 to 100000 | 100 to 1000 | 
O=C(O)c1ccc2noc(-c3ccc(C(=O)NCCC4CC4)cc3)c2c1 [Compound 39] | 100 to 1000 | 100 to 1000 | 100 to 1000 | IC50 (IP6K1; enzyme-coupled assay, Table 2): 100 to 1000 nM
CN1CCC(NC(=O)c2ccc(-c3onc4ccc(C(=O)O)cc34)cc2)CC1 [Compound 40] |  |  | 1000 to 100000 | IPMK IC50 (IPMK; enzyme-coupled assay, Table 2): −; IC50 (IP6K1; enzyme-coupled assay, Table 2): 1000 to 100000 nM

More lines, main results first:

IC50 (IP6K3; enzyme-coupled assay, Table 2) [nM] | IC50 (IPMK; enzyme-coupled assay, Table 2) [nM] | IC50 (IP6K2; enzyme-coupled assay, Table 2) [nM] | Structure (SMILES) | also measured
1000 to 100000 |  |  | Cc1cccc(-c2onc3ccc(C(=O)O)cc23)c1 [Compound 18, 3-(m-tolyl)benzo[c]isoxazole-5-carboxylic acid] | IPMK IC50 (IPMK; enzyme-coupled assay, Table 2): −
1000 to 100000 |  | 100 to 1000 | CC(C)NC(=O)c1ccc2noc(-c3ccccc3)c2c1 [Compound 22] | IPMK IC50 (IPMK; enzyme-coupled assay, Table 2): −; IC50 (IP6K1; enzyme-coupled assay, Table 2): 1000 to 100000 nM
100 to 1000 | 100 to 1000 |  | O=C(O)c1ccc2noc(-c3ccc(Oc4ccccc4)cc3)c2c1 [Compound 24] | 
100 to 1000 | 10 to 100 | 100 to 1000 | CNC(=O)c1ccc2noc(-c3ccc(-c4ccccc4)cc3)c2c1 [Compound 26] | IC50 (IP6K1; enzyme-coupled assay, Table 2): 10 to 100 nM
1000 to 100000 | 1000 to 100000 |  | O=C(O)c1ccc2noc(-c3cccc(Oc4ccccn4)c3)c2c1 [Compound 29] | 
100 to 1000 | 10 to 100 |  | O=C(O)c1ccc2noc(-c3cccc(Oc4ccccc4)c3)c2c1 [Compound 33] | 
100 to 1000 | 10 to 100 | 100 to 1000 | O=C(O)c1ccc2noc(-c3cccc(-c4ccccc4)c3)c2c1 [Compound 34] | 
